The numbers were not newly measured in patent US7510874B2, “Stable cell lines expressing HERG1a and HERG1b” (priority 2003, dated 2009), which cites them from elsewhere.

The data set has as its target IKr currents (Homo sapiens, UniProt Q12809). The note with it: background statement with literature references.

Chain of IKr currents (Q12809 whole entry): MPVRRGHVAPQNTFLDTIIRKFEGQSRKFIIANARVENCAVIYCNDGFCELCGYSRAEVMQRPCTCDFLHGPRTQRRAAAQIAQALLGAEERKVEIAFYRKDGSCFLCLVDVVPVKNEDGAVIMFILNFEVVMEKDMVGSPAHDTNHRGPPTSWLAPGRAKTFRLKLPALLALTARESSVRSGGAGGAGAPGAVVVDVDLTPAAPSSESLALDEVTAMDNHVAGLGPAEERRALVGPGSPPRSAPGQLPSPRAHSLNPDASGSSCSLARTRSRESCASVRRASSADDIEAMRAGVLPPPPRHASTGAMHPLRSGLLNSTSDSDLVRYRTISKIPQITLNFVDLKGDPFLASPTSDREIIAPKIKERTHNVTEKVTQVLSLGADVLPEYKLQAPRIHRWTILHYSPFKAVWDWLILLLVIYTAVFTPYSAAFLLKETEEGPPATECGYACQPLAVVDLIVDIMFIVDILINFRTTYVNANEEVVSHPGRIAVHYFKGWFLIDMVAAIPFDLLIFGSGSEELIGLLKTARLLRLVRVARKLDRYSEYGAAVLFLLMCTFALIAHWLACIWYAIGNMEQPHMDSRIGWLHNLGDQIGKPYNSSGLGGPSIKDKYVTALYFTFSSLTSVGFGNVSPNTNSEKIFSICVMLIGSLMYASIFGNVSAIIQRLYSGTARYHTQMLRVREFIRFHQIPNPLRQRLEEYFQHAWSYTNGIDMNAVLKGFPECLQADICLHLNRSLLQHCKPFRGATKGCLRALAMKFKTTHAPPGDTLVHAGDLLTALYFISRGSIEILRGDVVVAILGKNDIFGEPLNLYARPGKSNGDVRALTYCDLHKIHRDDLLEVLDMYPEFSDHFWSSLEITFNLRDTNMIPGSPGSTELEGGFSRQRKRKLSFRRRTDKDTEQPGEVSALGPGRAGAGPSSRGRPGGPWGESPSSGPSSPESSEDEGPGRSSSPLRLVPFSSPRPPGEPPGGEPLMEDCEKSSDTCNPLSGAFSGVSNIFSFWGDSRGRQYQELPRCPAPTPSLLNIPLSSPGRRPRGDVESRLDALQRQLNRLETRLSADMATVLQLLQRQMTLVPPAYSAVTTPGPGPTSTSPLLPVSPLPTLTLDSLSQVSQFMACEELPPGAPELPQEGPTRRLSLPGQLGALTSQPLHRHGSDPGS

`COc1cc(N)c(Cl)cc1C(=O)NC1CCN(CCCOc2ccc(F)cc2)CC1OC` (stereo not shown) [cisapride]: the “block of IKr currents (cause of acquired LQTS)” value is listed as “block of IKr currents”.
